Common to all, as to assay: Cell proliferation assay (CellTiter-Glo, 72 hours)
One test deals with T1, BaF3 EML4-ALK (Homo sapiens, UniProt Q9UM73).
T1 construct: The EML4-ALK gene (variant 1) was synthesized at GenScript and cloned into pCDH-CMV-MCS-EF1-Puro plasmid (System Biosciences, Inc); fused on or other part: Q9HC35 (Echinoderm microtubule-associated protein-like 4)
It is filed as cell-based. The note with it: anti-cell proliferation. Here is the method:
The EML4-ALK gene (variant 1) was synthesized at GenScript and cloned into pCDH-CMV-MCS-EF1-Puro plasmid (System Biosciences, Inc). Ba/F3-EML4-ALK wild type were generated by transducing Ba/F3 cells with lentivirus containing EML4-ALK wide type. Stable cell lines were selected by puromycin treatment, followed by IL-3 withdrawal. Briefly, 5×10^6 Ba/F3 cells were transduced with lentivirus supernatant in the presence of 8 μg/mL protamine sulfate. The transduced cells were subsequently selected with 1 μg/mL puromycin in the presence of IL3-containing medium RPMI1640, plus 10% FBS. After 10-12 days of selection, the surviving cells were further selected for IL3 independent growth.
(§1) Two thousand cells per well were seeded in 384 well white plate for 24 hrs, and then treated with compounds for 72 hours (37° C., 5% CO2). Cell proliferation was measured using CellTiter-Glo luciferase-based ATP detection assay (Promega) following the manufactures's protocol. IC50 determinations were performed using GraphPad Prism software (GraphPad, Inc., San Diego, Calif.).

The next test concerns KG-1. It is filed as cell-based, human. The note with it: Homo sapiens, KG-1, anti-cell proliferation. As for the experimental part: (§2) Human medulla thyroid carcinoma cell line TT (containing RET […] mutation) and acute myelogenous cell line KG-1 were purchased from ATCC. Human colon cancer cell line KMI2 (containing TPM3-TRKA) was obtained from NCI.
as §1

For the next test, the system named is KM12 cell (TPM3-TRKA). It is filed as cell-based, human. The settings on record: Homo sapiens, KM12, anti-cell proliferation. Here is the method: as §2, §1
Another test concerns the target T2, BaF3 KIF5B-RET (Homo sapiens, UniProt P07949).
T2 construct: fused on or other part: P33176 (Kinesin-1 heavy chain)
The format is cell-based. The note with it: anti-cell proliferation, read-out: BaF3 KIF5B-RET IC50.
Excerpt: (§3) The KIF5B-RET gene was synthesized at GenScript and cloned into pCDH-CMV-MCS-EF1-Puro plasmid (System Biosciences, Inc). KIF5B-RET point mutation V804M was generated at GenScript by PCR and confirmed by sequencing. Ba/F3-KIF5B-RET wild type and mutant were generated by transducing Ba/F3 cells with lentivirus containing KIF5B-RET wide type or mutant. Stable cell lines were selected by puromycin treatment, followed by IL-3 withdrawal. Briefly, 5×10^6 Ba/F3 cells were transduced with lentivirus supernatant in the presence of 8 μg/mL protamine sulfate. The transduced cells were subsequently selected with 1 µg/mL puromycin in the presence of IL3-containing medium RPMI1640, plus 10% FBS. After 10-12 days of selection, the surviving cells were further selected for IL3 independent growth.
as §1

In another test the target is T3, BaF3 KIF5B-RET_G810R (Homo sapiens, UniProt P07949, G810R, cells depend on it).
T3 construct: fused on or other part: P33176 (Kinesin-1 heavy chain)
The format is cell-based. The settings on record: anti-cell proliferation, read-out: BaF3 KIF5B-RET_G810R IC50.
Excerpt: [The source words this procedure for another variant and reports this variant under the same test.] as §3, §1

The target of a further test is T4, BaF3 KIF5B-RET_V804M (Homo sapiens, UniProt P07949, V804M, cells depend on it).
T4 construct: fused on or other part: P33176 (Kinesin-1 heavy chain)
It is filed as cell-based. The settings on record: anti-cell proliferation, read-out: BaF3 KIF5B-RET_V804M IC50.
Excerpt: as §3, §1

Where only a bound is given, the exact number is not on record here.

T2 sequence (P07949 whole entry, change not shown, the tested form may be a part): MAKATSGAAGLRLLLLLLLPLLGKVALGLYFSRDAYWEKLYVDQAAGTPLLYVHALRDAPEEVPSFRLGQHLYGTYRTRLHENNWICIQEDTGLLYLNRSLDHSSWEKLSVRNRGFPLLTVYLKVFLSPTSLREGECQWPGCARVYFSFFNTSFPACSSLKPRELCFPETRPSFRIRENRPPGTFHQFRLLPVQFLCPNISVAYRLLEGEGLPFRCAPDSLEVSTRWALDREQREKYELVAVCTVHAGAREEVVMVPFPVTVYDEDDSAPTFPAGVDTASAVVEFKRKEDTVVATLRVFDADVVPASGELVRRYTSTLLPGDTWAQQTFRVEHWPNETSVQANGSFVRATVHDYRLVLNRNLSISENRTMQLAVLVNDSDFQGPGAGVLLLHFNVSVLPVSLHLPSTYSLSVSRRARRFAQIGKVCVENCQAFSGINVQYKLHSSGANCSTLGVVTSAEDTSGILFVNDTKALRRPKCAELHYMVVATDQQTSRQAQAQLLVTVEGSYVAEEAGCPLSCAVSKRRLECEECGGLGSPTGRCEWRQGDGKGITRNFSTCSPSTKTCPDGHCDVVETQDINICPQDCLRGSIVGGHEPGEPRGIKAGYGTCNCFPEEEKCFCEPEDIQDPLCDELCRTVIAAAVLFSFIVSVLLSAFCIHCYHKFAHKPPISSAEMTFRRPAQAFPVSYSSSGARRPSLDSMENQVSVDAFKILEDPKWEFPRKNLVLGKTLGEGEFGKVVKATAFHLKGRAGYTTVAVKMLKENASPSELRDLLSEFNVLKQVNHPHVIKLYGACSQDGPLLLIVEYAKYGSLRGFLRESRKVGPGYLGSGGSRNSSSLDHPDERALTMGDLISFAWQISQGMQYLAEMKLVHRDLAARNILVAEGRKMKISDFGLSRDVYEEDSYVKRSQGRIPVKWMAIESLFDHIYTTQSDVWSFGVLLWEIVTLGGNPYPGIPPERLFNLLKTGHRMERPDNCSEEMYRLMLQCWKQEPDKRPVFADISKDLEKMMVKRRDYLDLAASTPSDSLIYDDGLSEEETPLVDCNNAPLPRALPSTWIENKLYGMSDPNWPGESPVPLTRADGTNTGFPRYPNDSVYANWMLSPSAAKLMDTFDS
T4 sequence (P07949 whole entry V804M, the tested form may be a part): as the sequence (P07949 whole entry, change not shown, the tested form may be a part) above, with V804M counted along it
T3 sequence (P07949 whole entry G810R, the tested form may be a part): as the sequence (P07949 whole entry, change not shown, the tested form may be a part) above, with G810R counted along it
T1 sequence (Q9UM73 whole entry, change not shown, the tested form may be a part): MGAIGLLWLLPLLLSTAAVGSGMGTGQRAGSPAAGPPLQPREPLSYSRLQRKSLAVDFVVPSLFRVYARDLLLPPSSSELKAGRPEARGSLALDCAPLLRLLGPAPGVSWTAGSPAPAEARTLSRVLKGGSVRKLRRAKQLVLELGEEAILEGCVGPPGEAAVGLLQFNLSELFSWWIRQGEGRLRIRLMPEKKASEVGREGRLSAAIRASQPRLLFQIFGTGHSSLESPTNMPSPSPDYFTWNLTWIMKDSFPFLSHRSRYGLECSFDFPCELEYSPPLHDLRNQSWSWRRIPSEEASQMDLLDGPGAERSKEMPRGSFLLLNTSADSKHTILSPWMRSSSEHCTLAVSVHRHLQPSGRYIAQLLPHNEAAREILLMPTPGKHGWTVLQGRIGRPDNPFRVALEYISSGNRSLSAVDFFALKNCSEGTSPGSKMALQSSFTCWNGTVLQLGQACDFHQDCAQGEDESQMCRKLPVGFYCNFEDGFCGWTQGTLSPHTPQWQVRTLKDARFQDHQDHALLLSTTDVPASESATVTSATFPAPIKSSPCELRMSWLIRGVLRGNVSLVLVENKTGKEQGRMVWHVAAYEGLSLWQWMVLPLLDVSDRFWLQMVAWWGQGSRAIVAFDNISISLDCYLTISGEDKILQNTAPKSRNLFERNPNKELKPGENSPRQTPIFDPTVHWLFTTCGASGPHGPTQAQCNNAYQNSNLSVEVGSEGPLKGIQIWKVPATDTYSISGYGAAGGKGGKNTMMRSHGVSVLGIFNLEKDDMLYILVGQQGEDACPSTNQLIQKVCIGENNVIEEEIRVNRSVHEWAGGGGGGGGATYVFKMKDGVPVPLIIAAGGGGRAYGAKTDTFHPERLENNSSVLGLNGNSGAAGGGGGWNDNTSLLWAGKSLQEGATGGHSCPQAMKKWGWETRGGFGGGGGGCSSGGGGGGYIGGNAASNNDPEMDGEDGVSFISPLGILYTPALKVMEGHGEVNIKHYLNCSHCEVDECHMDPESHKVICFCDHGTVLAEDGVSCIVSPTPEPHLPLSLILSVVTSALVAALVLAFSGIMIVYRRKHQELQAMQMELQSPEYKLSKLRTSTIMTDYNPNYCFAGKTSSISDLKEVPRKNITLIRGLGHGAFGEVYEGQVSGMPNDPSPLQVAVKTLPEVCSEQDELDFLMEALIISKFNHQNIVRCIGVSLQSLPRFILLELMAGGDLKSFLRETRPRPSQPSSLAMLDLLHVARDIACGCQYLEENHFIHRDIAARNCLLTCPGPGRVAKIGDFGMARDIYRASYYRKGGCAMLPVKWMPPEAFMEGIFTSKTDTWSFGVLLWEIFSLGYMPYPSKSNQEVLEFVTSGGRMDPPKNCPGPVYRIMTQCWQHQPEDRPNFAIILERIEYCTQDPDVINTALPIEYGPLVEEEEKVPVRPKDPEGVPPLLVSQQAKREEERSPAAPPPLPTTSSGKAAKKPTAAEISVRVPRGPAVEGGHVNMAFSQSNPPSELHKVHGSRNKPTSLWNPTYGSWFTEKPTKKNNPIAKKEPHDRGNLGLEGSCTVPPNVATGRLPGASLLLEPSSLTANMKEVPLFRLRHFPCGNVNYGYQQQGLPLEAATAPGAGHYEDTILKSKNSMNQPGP

`O=C1NCC2(CCC2)COc2ncc(F)cc2CN2c3nc4c1cnn4cc3O[C@H]1CCC[C@H]12` [Compound 23, (3a′R,21a′S)-7′-fluoro-1′H,2′H,3′H,3a′H, 5′H,11′H,13′H,14′H,15′H,21a′H-spiro[cyclobutane-1,12′-[10,21]dioxa[4,9,14,17,18,19][hexaaza [18,20](metheno)cyclopenta[5,6][1,4]oxazino[4,3-e]pyrazolo[3,4-h]pyrido [2,3-b][1,5,7,11]oxatriazacyclotetradecin]-15′-one]: the GI50 worked out at 1680 nM at BaF3 EML4-ALK, 98.9 nM at BaF3 KIF5B-RET, 422 nM at BaF3 KIF5B-RET_G810R and 3000 nM at BaF3 KIF5B-RET_V804M. Further, the IC50 (usually the concentration at which inhibition is half-maximal) in the test with KG-1 is 228 nM; with KM12 cell (TPM3-TRKA), 52.9 nM.
Take `O=C1N[C@@H]2CCC[C@@H]2Oc2ncc(F)cc2CN2c3nc4c1cnn4cc3O[C@H]1CCC[C@H]12` [Compound 24, (3aS,11aR,14aS,21aR)-18-fluoro-2,3,3a,11,11a,12,13,14,14a,21a-decahydro-1H,10H,20H-7,5-(metheno)cyclopenta[b]cyclopenta[5,6][1,4] oxazino[3,4-i]pyrazolo[4,3-f]pyrido[3,2-l][1,4,8,10]oxatriazacyclotridecin-10-one]: the GI50 at BaF3 EML4-ALK was determined as 469 nM; at BaF3 KIF5B-RET, 1.8 nM; on BaF3 KIF5B-RET_G810R it was 73.6 nM; on BaF3 KIF5B-RET_V804M it was 1220 nM. For the same compound, the IC50 in the test with KG-1 is 8.7 nM; with KM12 cell (TPM3-TRKA) it was 2.8 nM.
As for `O=C1NC2(COc3ncc(F)cc3CN3c4nc5c1cnn5cc4O[C@H]1CCC[C@H]13)CC(F)(F)C2` [Compound 25, (3a′R,20a′S)-3,3,7′-trifluoro-1′H,2′H, 3′H,3a′H,5′H,11′H,13′H,14′H,20a′H-spiro[cyclobutane-1,12′-[10,20]dioxa[4,9,13,16,17,18][hexaaza [17,19](metheno)cyclopenta[5,6][1,4]oxazino[3,4-i]pyrazolo[4,3-f]pyrido [3,2-l][1,4,8,10]oxatriazacyclotridecin]-14′-one], the GI50 on BaF3 EML4-ALK came out at 3000 nM; on BaF3 KIF5B-RET, 193 nM; on BaF3 KIF5B-RET_G810R it was 559 nM; on BaF3 KIF5B-RET_V804M, 3000 nM. The results for the IC50 in the test on KG-1 and in the test on KM12 cell (TPM3-TRKA) were 677 nM and 277 nM, respectively.
For `O=C1NC2(CCCC2)COc2ncc(F)cc2CN2c3nc4c1cnn4cc3O[C@H]1CCC[C@H]12` [Compound 26, (3a′R,20a′S)-7′-fluoro-1′H,2′H, 3′H,3a′H,5′H,11′H,13′H,14′H,20a′H-spiro[cyclopentane-1,12′-[10,20]dioxa[4,9,13,16,17,18][hexaaza [17,19](metheno)cyclopenta[5,6][1,4]oxazino[3,4-i]pyrazolo[4,3-f]pyrido [3,2-l][1,4,8,10]oxatriazacyclotridecin]-14′-one], the GI50 amounted to 1410 nM on BaF3 EML4-ALK, 160 nM at BaF3 KIF5B-RET, 323 nM on BaF3 KIF5B-RET_G810R and 5000 nM on BaF3 KIF5B-RET_V804M. Besides, the IC50 stood at 737 nM in the test with KG-1 and 210 nM in the test with KM12 cell (TPM3-TRKA).
As for `CC1(C)CNC(=O)c2cnn3cc4c(nc23)N(Cc2cc(F)cnc2OC1)[C@@H]1CCC[C@@H]1O4` [Compound 27, (3aR,21aS)-7-fluoro-12,12-dimethyl-2,3,3a,11,12,13,14,21a-octahydro-1H,5H,15H-18,20-(metheno)cyclopenta[5,6][1,4]oxazino[4,3-e]pyrazolo[3,4-h]pyrido[2,3-b][1,5,7,11]oxatriazacyclotetradecin-15-one], the GI50 at BaF3 EML4-ALK was 1000 nM; on BaF3 KIF5B-RET it was less than 0.2 nM; on BaF3 KIF5B-RET_G810R, 63 nM; at BaF3 KIF5B-RET_V804M, 2000 nM. Further, the IC50 in the test on KG-1 and in the test on KM12 cell (TPM3-TRKA) was 0.3 nM throughout.
In the case of `C[C@H]1CCOc2ncc(F)cc2CN2c3nc4c(cnn4cc3O[C@H]3CCC[C@H]32)C(=O)N1` [Compound 28, (3aR,13S,21aS)-7-fluoro-13-methyl-2,3,3a,11,12,13,14,21a-octahydro-1H,5H,15H-18,20-(metheno)cyclopenta[5,6][1,4]oxazino[4,3-e]pyrazolo[3,4-h]pyrido[2,3-b][1,5,7,11]oxatriazacyclotetradecin-15-one], the GI50 on BaF3 EML4-ALK is 803 nM; on BaF3 KIF5B-RET, 1.5 nM; on BaF3 KIF5B-RET_G810R, 72 nM; on BaF3 KIF5B-RET_V804M, 2000 nM. Besides, the IC50 in the test with KG-1 was determined as 22.8 nM; in the test with KM12 cell (TPM3-TRKA), 11.8 nM.
Regarding `CC1CNC(=O)c2cnn3cc4c(nc23)N(Cc2cc(F)cnc2OC1)[C@@H]1CCC[C@@H]1O4` (stereo partly drawn) [Compound 29, (3aR,21aS)-7-fluoro-12-methyl-2,3,3a,11,12,13,14,21a-octahydro-1H,5H,15H-18,20-(metheno)cyclopenta[5,6][1,4]oxazino[4,3-e]pyrazolo[3,4-h]pyrido[2,3-b][1,5,7,11]oxatriazacyclotetradecin-15-one], the GI50 on BaF3 EML4-ALK came to 901 nM; at BaF3 KIF5B-RET, 0.3 nM; at BaF3 KIF5B-RET_G810R it was 134 nM; at BaF3 KIF5B-RET_V804M it was 1380 nM. Also, the IC50 in the test with KG-1 came out at 7.9 nM; with KM12 cell (TPM3-TRKA) it was 1.7 nM.
On to `C[C@H]1CNC(=O)c2cnn3cc4c(nc23)N(Cc2cc(F)cnc2O1)[C@@H]1COC[C@@H]1O4` [Compound 30, (3aR,11S,20aR)-7-fluoro-11-methyl-1,3,3a,12,13,20a-hexahydro-5H-17,19-(metheno)furo[3′,4′:5,6][1,4]oxazino[3,4-i]pyrazolo[4,3-f]pyrido[3,2-l][1,4,8,10]oxatriazacyclotridecin-14(11H)-one], for which the GI50 on BaF3 EML4-ALK came out at 2000 nM; on BaF3 KIF5B-RET it was 162 nM; at BaF3 KIF5B-RET_G810R it was 1860 nM; on BaF3 KIF5B-RET_V804M it was 337 nM. Also, the IC50 was found to be 853 nM in the test on KG-1 and 13.5 nM in the test with KM12 cell (TPM3-TRKA).
As to `O=C1NC[C@H](O)COc2ncc(F)cc2CN2c3nc4c1cnn4cc3O[C@H]1CCC[C@H]12` [Compound 32, (3aR,12S,21aS)-7-fluoro-12-hydroxy-2,3,3a,11,12,13,14,21a-octahydro-1H,5H,15H-18,20-(metheno)cyclopenta[5,6][1,4]oxazino[4,3-e]pyrazolo[3,4-h]pyrido[2,3-b][1,5,7,11]oxatriazacyclotetradecin-15-one], the GI50 at BaF3 EML4-ALK came to 1060 nM; at BaF3 KIF5B-RET it was 89 nM; at BaF3 KIF5B-RET_G810R, 501 nM; on BaF3 KIF5B-RET_V804M, 5720 nM. Besides, the results for the IC50 in the test with KG-1 and in the test with KM12 cell (TPM3-TRKA) were 223 nM and 20.2 nM, respectively.
Consider `O=C1NCC(O)(O)COc2ncc(F)cc2CN2c3nc4c1cnn4cc3O[C@H]1CCC[C@H]12` [Compound 33, (3aR,21aS)-7-fluoro-12,12-dihydroxy-2,3,3a,11,12,13,14,21a-octahydro-1H,5H,15H-18,20-(metheno)cyclopenta[5,6][1,4]oxazino[4,3-e]pyrazolo[3,4-h]pyrido[2,3-b][1,5,7,11]oxatriazacyclotetradecin-15-one], for which the GI50 was 2000 nM at BaF3 EML4-ALK, 198 nM on BaF3 KIF5B-RET, 1200 nM at BaF3 KIF5B-RET_G810R and 4000 nM at BaF3 KIF5B-RET_V804M. The IC50 in the test with KG-1 came out at 356 nM; in the test with KM12 cell (TPM3-TRKA) it was 124 nM.
On to `O=C1NC[C@H](F)COc2ncc(F)cc2CN2c3nc4c1cnn4cc3O[C@H]1CCC[C@H]12` [Compound 38, (3aR,12S,21aS)-7,12-difluoro-2,3,3a,11,12,13,21a-octahydro-1H,5H, 15H-18,20-(metheno)cyclopenta[5,6][1,4] oxazino[4,3-e]pyrazolo[3,4-h]pyrido[2,3-b][1,5,7,11]oxatriazacyclotetradecin-15-one], for which the GI50 on BaF3 EML4-ALK was 82.1 nM; at BaF3 KIF5B-RET, less than 0.2 nM; on BaF3 KIF5B-RET_G810R, 0.3 nM; at BaF3 KIF5B-RET_V804M it was 349 nM. The IC50 in the test on KG-1 and in the test with KM12 cell (TPM3-TRKA) was less than 0.2 nM throughout.

The values are drawn from patent US10745416B2, “Macrocyclic compounds for treating disease” (Turning Point Therapeutics, Inc., priority 2017, dated 2020).
